The record followed here is the supplement of paper PMC10307832.

Experiment in all cases: relative viability (nuclei count vs DMSO), 5 days (fraction); higher = more cells survive
Compound in test [1]: Cc1ccccc1C(C(=O)NC1CCCCC1)N(C(=O)Cn1ccnc1C)c1cccc(F)c1 [IDH-C35] + C[C@]1(O)C[C@@H](c2nc(-c3ccc4ccc(-c5ccccc5)nc4c3)c3c(N)nccn32)C1 [Linsitinib] (partner 1 µM)
The essentials: (§1)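 Lung cancer cell lines were pin-tool dosed in 1536-well plates on the day after seeding, with either a lone drug or a fixed anchor-drug dose plus five library-drug doses (not always all listed) in √10 steps. Nuclei were counted on 4× images after 5 days. Relative viability is the ratio of treated-well to vehicle-well nuclei counts, with each value a median of duplicate plates.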

Compound in test [2]: CC1=C(C(=NN1)C)CC2=C(C3=C(S2)N(C(=O)N(C3=O)C)CC(C)C)C(=O)N4C[C@@H](CO4)O + CCNC(=O)c1noc(-c2cc(C(C)C)c(O)cc2O)c1-c1ccc(CN2CCOCC2)cc1 [Luminespib] (partner 0.01 µM)
The essentials: as §1

Compound in test [3]: Cc1ccccc1C(C(=O)NC1CCCCC1)N(C(=O)Cn1ccnc1C)c1cccc(F)c1 [IDH-C35] + CC(=O)Nc1cccc(-n2c(=O)n(C3CC3)c(=O)c3c(Nc4ccc(I)cc4F)n(C)c(=O)c(C)c32)c1 [Trametinib] (partner 0.02 µM)
A digest of the protocol: as §1

Compound in test [4]: Cc1ccccc1C(C(=O)NC1CCCCC1)N(C(=O)Cn1ccnc1C)c1cccc(F)c1 [IDH-C35] + Nc1ncn([C@H]2C[C@H](O)[C@@H](CO)O2)c(=O)n1 [Decitabine] (partner 2 µM)
The essentials: as §1

Turning to NCI-H1793, the relative viability in test [1] (first compound 0.08 µM) is 0.908; in test [1] (first compound 0.253 µM) it was 0.808; in test [1] (first compound 0.8 µM), 0.859; in test [1] (first compound 2.53 µM), 0.85; in test [1] (first compound 8 µM), 0.773; in test [2] (first compound 0.0025 µM), 0.608. For the same cell line, the relative viability in test [2] (first compound 0.007906 µM) was determined as 0.17; in test [2] (first compound 0.025 µM), 0.208; in test [2] (first compound 0.07906 µM), 0.164; in test [2] (first compound 0.25 µM), 0.187; in test [3] (first compound 0.08 µM), 0.42; in test [3] (first compound 0.253 µM) it was 0.45. Also, the relative viability in test [3] (first compound 0.8 µM) turned out to be 0.374; in test [3] (first compound 2.53 µM), 0.472; in test [3] (first compound 8 µM), 0.401; in test [4] (first compound 0.08 µM) it was 0.519; in test [4] (first compound 0.253 µM) it was 0.454; in test [4] (first compound 0.8 µM), 0.535. Besides, the relative viability is 0.586 in test [4] (first compound 2.53 µM) and 0.476 in test [4] (first compound 8 µM).

Consider NCI-H1915, for which the relative viability in test [1] (first compound 0.08 µM) was 1.13; in test [1] (first compound 0.253 µM), 1.12; in test [1] (first compound 0.8 µM), 1.1; in test [1] (first compound 2.53 µM), 1.07; in test [1] (first compound 8 µM) it was 1.09; in test [2] (first compound 0.0025 µM) it was 0.868. Further, the relative viability in test [2] (first compound 0.007906 µM) was determined as 0.738; in test [2] (first compound 0.025 µM) it was 0.75; in test [2] (first compound 0.07906 µM), 0.768; in test [2] (first compound 0.25 µM), 0.816; in test [3] (first compound 0.08 µM) it was 0.316; in test [3] (first compound 0.253 µM), 0.315. Further, the relative viability in test [3] (first compound 0.8 µM) amounted to 0.275; in test [3] (first compound 2.53 µM), 0.278; in test [3] (first compound 8 µM) it was 0.276; in test [4] (first compound 0.08 µM), 0.278; in test [4] (first compound 0.253 µM), 0.248; in test [4] (first compound 0.8 µM), 0.293. In addition, the relative viability in test [4] (first compound 2.53 µM) amounted to 0.281; in test [4] (first compound 8 µM) it was 0.277.

Consider NCI-H1944, for which the relative viability in test [1] (first compound 0.08 µM) is 1.07; in test [1] (first compound 0.253 µM), 1.29; in test [1] (first compound 0.8 µM), 1.27; in test [1] (first compound 2.53 µM), 1.09; in test [1] (first compound 8 µM), 1.1; in test [2] (first compound 0.0025 µM), 0.81. The relative viability was found to be 1.11 in test [2] (first compound 0.007906 µM); 0.714 in test [2] (first compound 0.025 µM); 0.698 in test [2] (first compound 0.07906 µM); 0.801 in test [2] (first compound 0.25 µM); 0.392 in test [3] (first compound 0.08 µM); 0.421 in test [3] (first compound 0.253 µM). The relative viability in test [3] (first compound 0.8 µM) came out at 0.42; in test [3] (first compound 2.53 µM) it was 0.332; in test [3] (first compound 8 µM) it was 0.393; in test [4] (first compound 0.08 µM), 0.43; in test [4] (first compound 0.253 µM) it was 0.416; in test [4] (first compound 0.8 µM) it was 0.43. Moreover, the relative viability turned out to be 0.416 in test [4] (first compound 2.53 µM) and 0.437 in test [4] (first compound 8 µM).

As for NCI-H1975, the relative viability in test [1] (first compound 0.08 µM) was found to be 0.854; in test [1] (first compound 0.253 µM), 0.937; in test [1] (first compound 0.8 µM) it was 0.93; in test [1] (first compound 2.53 µM), 0.92; in test [1] (first compound 8 µM), 0.878; in test [2] (first compound 0.0025 µM), 0.237. The relative viability in test [2] (first compound 0.007906 µM) came to 0.294; in test [2] (first compound 0.025 µM), 0.168; in test [2] (first compound 0.07906 µM) it was 0.16; in test [2] (first compound 0.25 µM), 0.147; in test [3] (first compound 0.08 µM), 0.384; in test [3] (first compound 0.253 µM), 0.363. In addition, the relative viability in test [3] (first compound 0.8 µM) was found to be 0.323; in test [3] (first compound 2.53 µM), 0.345; in test [3] (first compound 8 µM), 0.32; in test [4] (first compound 0.08 µM), 0.442; in test [4] (first compound 0.253 µM), 0.403; in test [4] (first compound 0.8 µM) it was 0.379. Moreover, the relative viability in test [4] (first compound 2.53 µM) came to 0.438; in test [4] (first compound 8 µM) it was 0.364.
